# Biological target: T1, Recombinant Human SSAO/VAP-1/AOC3 (Homo sapiens, UniProt Q16853)
# T1 construct: purchased R&D systems 3957-AO
# T1 sequence (Q16853 1-763): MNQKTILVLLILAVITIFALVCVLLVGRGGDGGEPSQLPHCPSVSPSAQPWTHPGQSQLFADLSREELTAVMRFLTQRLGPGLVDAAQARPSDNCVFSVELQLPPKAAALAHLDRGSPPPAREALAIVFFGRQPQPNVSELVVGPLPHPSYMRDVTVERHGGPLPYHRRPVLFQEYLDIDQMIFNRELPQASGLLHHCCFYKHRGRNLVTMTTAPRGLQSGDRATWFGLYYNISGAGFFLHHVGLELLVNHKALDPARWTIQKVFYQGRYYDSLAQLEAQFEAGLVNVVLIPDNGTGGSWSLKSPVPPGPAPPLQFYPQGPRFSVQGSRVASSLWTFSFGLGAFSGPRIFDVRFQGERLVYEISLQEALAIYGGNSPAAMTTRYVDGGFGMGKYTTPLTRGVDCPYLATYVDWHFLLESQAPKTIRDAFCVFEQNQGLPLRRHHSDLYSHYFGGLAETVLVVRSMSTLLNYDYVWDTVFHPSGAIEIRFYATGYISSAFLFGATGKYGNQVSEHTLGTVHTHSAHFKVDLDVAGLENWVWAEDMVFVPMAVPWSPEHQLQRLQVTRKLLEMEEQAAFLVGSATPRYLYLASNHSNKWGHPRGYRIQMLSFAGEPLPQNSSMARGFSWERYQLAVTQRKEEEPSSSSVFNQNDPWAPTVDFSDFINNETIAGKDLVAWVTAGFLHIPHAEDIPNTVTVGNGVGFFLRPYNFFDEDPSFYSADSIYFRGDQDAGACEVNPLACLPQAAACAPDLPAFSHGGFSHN
# Test: Human Semicarbazide-Sensitive Amine Oxidase (SSAO) Assay
# Type: biochemical
# Conditions: recombinant enzyme, 30 minutes preincubation at 37° C., benzylamine substrate, Amplex Ultra Red/HRP fluorescence
# Method: Compounds were dissolved in DMSO to provide a Concentration Response Curve (CRC; at 500 times the final concentration) over a range of 6-10 dilutions.
# Recombinant Human SSAO/VAP-1/AOC3 (R&D systems; Catalog #3957-AO) was used to screen compound potency in vitro, according to previously described methods (J Pharmacol Exp Ther. 2013 November; 347(2):365-74). SSAO enzyme was suspended in 50 mM HEPES buffer to a working concentration of 2.5 μg/ml and 40 μL of this enzyme mixture was then added to each well of a F16 Black Maxisorp 96 well Plate (Nunc, Catalog #475515). Ten microliters of each test compound (at 5 times the final concentration) were added to each well, resulting in a final well volume of 50 μL of the enzyme and inhibitor mixture. The compounds were preincubated with the enzyme for 30 minutes at 37° C., prior to the addition of a 40 μL volume of Amplex Ultra Red (125 uM AUR; Molecular Probes, Catalog # A36006)/Horseradish peroxidase (2.5 U/ml HRP; Sigma-Aldrich Catalog # P8375) oxidase detection reagent containing cytochrome C ([…]; Sigma-Aldrich Catalog # C7752). Cytochrome C was included in the AUR/HRP detection mixture to reduce the background fluorescence that can occur via the spontaneous redox reaction between AUR and HRP. The SSAO enzyme reaction was then initiated by adding 10 μL of the SSAO substrate, benzylamine (Sigma-Aldrich Catalog # B5136), and SSAO activity was measured in kinetic mode over a 30-120 minute sampling period (excit. 544 nm; emit 590 nm; cut off 570 nm; medium gain) to obtain IC50 values for enzyme activity in each treatment well.
row,SMILES,IC50
1,"CN(C(=O)C12CCC(c3ccc(OC/C(=C/F)CN)cc3)(CC1)CC2)C1CCOCC1 [Compound 2.16, (E)-4-(4-((2-(amino-methyl)-3-fluoroallyl)oxy)phenyl)-N-methyl-N-(tetrahydro-2H-pyran-4-yl)bicyclo[2.2.2] octane-1-carboxamide]",≤ 10 nM
2,"CNC(=O)CCNC(=O)C12CCC(c3ccc(OC/C(=C/F)CN)cc3)(CC1)CC2 [Compound 2.17, (E)-4-(4-((2-(amino-methyl)-3-fluoroallyl)oxy)phenyl)-N-(3-(methylamino)-3-oxopropyl)bicyclo[2.2.2] octane-1-carboxamide]",≤ 10 nM
3,"CC1(NC(=O)C23CCC(c4ccc(OC/C(=C/F)CN)cc4)(CC2)CC3)CCOCC1 [Compound 2.18, (E)-4-(4-((2-(amino-methyl)-3-fluoroallyl)oxy)phenyl)-N-(4-methyltetrahydro-2H-pyran-4-yl)bicyclo [2.2.2]octane-1-carboxamide]",≤ 10 nM
4,"CC(NC(=O)C12CCC(c3ccc(OC/C(=C/F)CN)cc3)(CC1)CC2)C1CCOCC1 (centres unmarked) [Compound 2.19, (E)-4-(4-((2-(amino-methyl)-3-fluoroallyl)oxy)phenyl)-N-(1-(tetrahydro-2H-pyran-4-yl)ethyl)bicyclo[2.2.2] octane-1-carboxamide]",≤ 10 nM
5,NC/C(=C\F)COc1ccc(C23CCC(C(=O)NCC4CCOCC4)(CC2)CC3)cc1 [Compound 2.20],≤ 10 nM
6,"NC/C(=C\F)COc1ccc(C23CCC(C(=O)NC4CCOC4)(CC2)CC3)cc1 (centres unmarked) [Compound 2.21, (E)-4-(4-((2-(amino-methyl)-3-fluoroallyl)oxy)phenyl)-N-(tetrahydrofuran-3-yl)bicyclo[2.2.2]octane-1-carboxamide]",≤ 10 nM
7,"C[C@H]1COCCN1C(=O)C12CCC(c3ccc(OC/C(=C/F)CN)cc3)(CC1)CC2 [Compound 2.22, (S,E)-(4-(4-((2-(aminomethyl)-3-fluoroallyl)oxy)phenyl)bicyclo[2.2.2]octan-1-yl)(3-methylmorpholino) methanone]",≤ 10 nM
8,"CC(C)NC(=O)C12CCC(c3ccc(OC/C(=C/F)CN)cc3)(CC1)CC2 [Compound 2.23, (E)-4-(4-((2-(aminomethyl)-3-fluoroallyl)oxy)phenyl)-N-isopropylbicyclo [2.2.2]octane-1-carboxamide]",≤ 10 nM
9,"NC/C(=C\F)COc1ccc(C23CCC(C(=O)N4CCCCC4)(CC2)CC3)cc1 [Compound 2.24, (E)-(4-(4-((2-(amino-methyl)-3-fluoroallyl)oxy)phenyl)bicyclo [2.2.2]octan-1-yl)(piperidin-1-yl)methanone]",≤ 10 nM
10,"NC/C(=C\F)COc1ccc(C23CCC(C(=O)N4CCCC4)(CC2)CC3)cc1 [Compound 2.25, (E)-(4-(4-((2-(aminomethyl)-3-fluoroallyl)oxy)phenyl)bicyclo [2.2.2]octan-1-yl)(pyrrolidin-1-yl)methanone]",≤ 10 nM
11,"NC/C(=C\F)COc1ccc(C23CCC(C(=O)NCCCCl)(CC2)CC3)cc1 [Compound 2.26, (E)-4-(4-((2-(aminomethyl)-3-fluoroallyl)oxy)phenyl)-N-(3-chloropropyl)bicyclo[2.2.2] octane-1-carboxamide]",≤ 10 nM
12,"C[C@H](NC(=O)C12CCC(c3ccc(OC/C(=C/F)CN)cc3)(CC1)CC2)C1CCOCC1 [Compound 2.27, (S,E)-4-(4-((2-(aminomethyl)-3-fluoroallyl)oxy)phenyl)-N-(1-(tetrahydro-2H-pyran-4-yl)ethyl)bicyclo[2.2.2]octane-1-carboxamide]",≤ 10 nM
13,"C[C@@H](NC(=O)C12CCC(c3ccc(OC/C(=C/F)CN)cc3)(CC1)CC2)C1CCOCC1 [Compound 2.28, (R,E)-4-(4-((2-(aminomethyl)-3-fluoroallyl)oxy)phenyl)-N-(1-(tetrahydro-2H-pyran-4-yl)ethyl)bicyclo[2.2.2]octane-1-carboxamide]",≤ 10 nM
14,"NC/C(=C\F)COc1ccc(C23CCC(C(=O)N4CC(O)C4)(CC2)CC3)cc1 [Compound 2.29, (E)-(4-(4-((2-(aminomethyl)-3-fluoroallyl)oxy)phenyl)bicyclo [2.2.2]octan-1-yl)(3-hydroxyazetidin-1-yl)methanone]",≤ 10 nM

# Reference: patent publication US20200181104A1, “SSAO INHIBITORS AND USES THEREOF” (METACRINE, INC., priority 2018, published 2020)
